According to patent US20150291598A1 (NOVARTIS AG, priority 2012, published 2015):
Like-named read-outs stand apart in the source and are kept apart here.

Assays:
P. yoelii Sporozoite = test: P. yoelii sporozoite invasion assay in HepG2-A16-CD81EGFP liver cells (immunofluorescence quantification of EEFs); format: cell-based; conditions: Plasmodium yoelii
Description: Compounds of the invention can be assayed to measure their capacity to inhibit proliferation of parasites in liver cells. The proliferation is quantified by determine the number of infected cells by immunofluorescence.
Due to the difficulty of successfully infecting immortalized human liver cell lines with the human malaria sporozoites (liver-stage parasite), rodent malaria sporozoites from Plasmodium yoelii (17XNL) and P. berghei (ANKA) are the preferred surrogate. Sporozoites are obtained from Anopheles stephensi mosquitoes supplied by the New York University Insectary, which ships the malaria-infected mosquitoes 10-13 days following the ingestion of an infective blood meal.
A transgenic HepG2 cell line expressing the tetraspanin CD81 receptor (HepG2-A16-CD81^EGFP) is used to increase the infectivity rate of rodent-malaria sporozoites into human cells. HepG2-A16-CD81^EGFP cells are stably transformed to express a GFP-CD81 fusion protein. A continuous in vitro culture of this line was maintained at 37° C. in 4% CO2 in complete media (CM) which contains: DMEM (Invitrogen, Carlsbad, USA) supplemented with 10% FCS, 0.29 mg/ml glutamine, 100 units penicillin and 100 μg/ml streptomycin (SigmaAldrich, USA).
P. yoelii Sporozoite Invasion Assay
These plates are incubated at 37° C. with 4% CO2 overnight. Two hours prior to infection, 50 nl of compound dissolved in DMSO (0.1% final DMSO concentration per well) were transferred with a PinTool (GNF Systems) into the assay plates (10 μM final concentration). A 1:3 serial dilution of atovaquone (10 μM at the highest final concentration) and wells treated only with DMSO were used as positive and negative controls, respectively.
Freshly dissected salivary glands from infected mosquitoes were homogenized in a glass tissue grinder, filtered twice through Nylon cell strainers (40 μm pore size, BD Falcon) and counted using a hemocytometer. The assay plate with HepG2-A16-CD81^EGFP cells and compound were then infected with 8×10^3 sporozoites per well and the plates are subjected to a centrifugal force of 650×g to pellet the sporozoites onto the liver cell monolayer. The assay plate is incubated at 37° C. for 2 hours to permit sporozoite invasion, then the media is aspirated from the media plate, and replaced with 50 μl CM (containing a 5× concentration of penicillin/streptomycin; 500 units penicillin and 0.5 mg streptomycin per ml) per well. 50 nl of compound is re-introduced by PinTool and the assay plate incubated for 48 hours at 37° C. before quantification of infected cells by immunofluorescence.
Atovaquone and uninfected wells were used as controls on each plate. Two replicate plates are tested for each assay.
Stained EEFs were then quantified using the Opera Confocal High Content Screening System (PerkinElmer, Waltham, USA). Images were collected using a 20× objective lens (20×/0.45 NA, LWD Plan Fluor, Olympus) at a binning of 2, using a 365 nm Xeon arc lamp illumination to detect the Hoechst-labeled nuclei and 635 nm laser line to excite DyLight649-labeled parasites. The image resolution yielded was approximately 0.66 μm/pixel (˜0.43 μm 2/pixel). All images were analyzed using a custom Acapella™ (PerkinElmer) script parametrized for this assay. In brief, images from fields inside the well were first discarded as out-of focus when the intensity in the nuclear channel was too low. Then, HepG2-A16-CD81^EGFP cells were counted by detecting the nuclei labeled with Hoechst using the nuclei detection libraries available with Acapella™. Parasites were later segmented using the αPyHSP70 immuno-labeling signal, using a custom script library. Once the objects were segmented from the picture, morphological-based (e.g. size, roundness, etc) and intensity-based features were measured for each object detected in the image (i.e. nuclei and parasites). Infection ratio was set as the ratio between parasite number and number of nuclei counted in images considered as “in-focus”.

[1] = system: P. falciparum (NF54 or 3D7 strain); test: Assay for P. falciparum proliferation in infected human blood cells (SYBR Green); format: cell-based, Plasmodium falciparum; conditions: Plasmodium falciparum, Erythrocyte
How it was run: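 Infected erythrocytes (NF54 or 3D7; final 2.5% hematocrit, 0.3% parasitemia) were incubated with compounds for 72 h at 37 °C in low oxygen (3% O2, 4% CO2, 93% N2).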

[2] = HepG2-A16-CD81EGFP cells, 48 hours, read-out: EC50 (nM), inhibitory efficacy in delaying the proliferation of P. yoelii sporozoite in infected liver cells
[3] = 72 h, NF54 or 3D7 infected human erythrocytes, 72 hours, read-out: EC50 (nM), inhibitory efficacy in delaying P. falciparum proliferation in infected human blood cells
[4] = read-out: EC50, P. yoelii Sporozoite Invasion Assay
[5] = infected human red blood cells, read-out: EC50, P. falciparum Proliferation Assay
[6] = 72 h, read-out: EC50 (nM), inhibitory efficacy in delaying P. falciparum proliferation in infected human blood cells

`Cc1ccc(N(C)C(=O)c2cn3c(-c4ccc(C(F)(F)F)cc4)cnc3cn2)nc1` [Compound 491, N-methyl-N-(5-methylpyridin-2-yl)-3-[4-(trifluoromethyl)phenyl]imidazo[1,2-a]pyrazine-6-carboxamide] was tested, and the EC50 (P. yoelii Sporozoite; [2]) was 1110 nM and the EC50 [1, 3] was 199 nM.

`CN(Cc1cn2c(-c3ccc(C(N)=O)cc3)cnc2cn1)c1ccc(F)cc1` [Compound 222, 4-(6-{[(4-fluorophenyl)(methyl)amino]methyl}imidazo[1,2-a]pyrazin-3-yl)benzamide] was tested, and the EC50 (P. yoelii Sporozoite; [4]) was < 50 nM, the EC50 (P. yoelii Sporozoite; [2]) was 7 nM and the EC50 [1, 3] was 30 nM. The EC50 [1, 5] was < 50 nM.

In the case of `CN(Cc1cn2c(-c3ccc(C(N)=O)cc3)cnc2cn1)c1ccc(C#N)cc1` [Compound 223, 4-(6-{[(4-cyanophenyl)(methyl)amino]methyl}imidazo[1,2-a]pyrazin-3-yl)benzamide], the EC50 (P. yoelii Sporozoite; [4]) is reported as < 50 nM, the EC50 (P. yoelii Sporozoite; [2]) is reported as 11 nM and the EC50 [1, 3] is reported as 25 nM.

With `CN(Cc1cn2c(-c3ccc(C(F)(F)F)cc3)cnc2cn1)c1ccc(C#N)cc1` [Compound 213, 4-[methyl({3-[4-(trifluoromethyl)phenyl]imidazo[1,2-a]pyrazin-6-yl}methyl)amino]benzonitrile] the EC50 (P. yoelii Sporozoite; [4]) was < 50 nM, the EC50 (P. yoelii Sporozoite; [2]) was 14 nM and the EC50 [1, 3] was 41 nM.

`CN(C(=O)c1cn2c(-c3ccc4c(cnn4C)c3)cnc2cn1)c1ccc(C#N)cc1` [Compound 487, N-(4-cyanophenyl)-N-methyl-3-(1-methyl-1H-indazol-5-yl)imidazo[1,2-a]pyrazine-6-carboxamide] gave an EC50 (P. yoelii Sporozoite; [2]) of 2940 nM and an EC50 [1, 3] of 96 nM.

`CN(C(=O)c1cn2c(-c3ccc(C(N)=O)cc3)cnc2cn1)c1ccc(Cl)cc1` [Compound 486, 3-(4-carbamoylphenyl)-N-(4-chlorophenyl)-N-methylimidazo[1,2-a]pyrazine-6-carboxamide] was tested, and the EC50 (P. yoelii Sporozoite; [2]) was 120 nM, the EC50 [1, 3] was 42 nM and the EC50 [1, 5] was < 50 nM.

`CN(Cc1cn2c(-c3ccc(C(N)=O)cc3)cnc2cn1)c1ccc(Cl)cc1` [Compound 477, 4-(6-{[(4-chlorophenyl)(methyl)amino]methyl}imidazo[1,2-a]pyrazin-3-yl)benzamide] was tested, and the EC50 (P. yoelii Sporozoite; [4]) was < 50 nM, the EC50 (P. yoelii Sporozoite; [2]) was 11 nM and the EC50 [1, 3] was 9 nM. The EC50 [1, 5] was < 50 nM.

In the case of `CNC(=O)c1ccc(-c2cnc3cnc(C(=O)N(C)c4ccc(Cl)cc4)cn23)cc1` [Compound 228, N-(4-chlorophenyl)-N-methyl-3-[4-(methylcarbamoyl)phenyl]imidazo[1,2-a]pyrazine-6-carboxamide], the EC50 (P. yoelii Sporozoite; 48 h, read-out: EC50 (nM), inhibitory efficacy in delaying the proliferation of P. yoelii sporozoite in infected liver cells) is reported as 32 nM, the EC50 (P. yoelii Sporozoite; [4]) is reported as < 50 nM and the EC50 [1, 6] is reported as 58 nM.

For `CN(C(=O)c1cn2c(-c3ccc(C(F)(F)F)cc3)cnc2cn1)c1ccc(C#N)cc1` [Compound 76, N-(4-cyanophenyl)-N-methyl-3-[4-(trifluoromethyl)phenyl]imidazo[1,2-a]pyrazine-6-carboxamide], the EC50 (P. yoelii Sporozoite; [2]) was 263 nM and the EC50 [1, 6] was 35 nM.

`COC(=O)Nc1ccc(-c2cnc3cnc(C(=O)N(C)c4ccc(C#N)cc4)cn23)cc1` [Compound 482, methyl N-(4-{6-[(4-cyanophenyl)(methyl)carbamoyl]imidazo[1,2-a]pyrazin-3-yl}phenyl)carbamate] was tested, and the EC50 (P. yoelii Sporozoite; [2]) was 64 nM and the EC50 [1, 3] was 37 nM.

In the case of `CNC(=O)c1ccc(-c2cnc3cnc(C(=O)N(C)c4ccc(C#N)cc4)cn23)cc1` [Compound 38, N-(4-cyanophenyl)-N-methyl-3-[4-(methylcarbamoyl)phenyl]imidazo[1,2-a]pyrazine-6-carboxamide], the EC50 (P. yoelii Sporozoite; [2]) is reported as 290 nM and the EC50 [1, 3] is reported as 131 nM.

Work on `CC(=O)Nc1ccc(-c2cnc3cnc(C(=O)N(C)c4ccc(C#N)cc4)cn23)cn1` [Compound 236, N-(4-cyanophenyl)-3-(6-acetamidopyridin-3-yl)-N-methylimidazo[1,2-a]pyrazine-6-carboxamide] yielded an EC50 (P. yoelii Sporozoite; [2]) of 189 nM and an EC50 [1, 3] of 127 nM.

Compound `CN(C(=O)c1cn2c(-c3ccc(C(N)=O)cc3)cnc2cn1)c1ccc(F)cc1` [Compound 11, 3-(4-carbamoylphenyl)-N-(4-fluorophenyl)-N-methylimidazo[1,2-a]pyrazine-6-carboxamide] has an EC50 (P. yoelii Sporozoite; [2]) of 56 nM and an EC50 [1, 3] of 74 nM.

In the case of `CN(C(=O)c1cn2c(-c3ccc(C(N)=O)cc3)cnc2cn1)c1ccc(S(C)(=O)=O)cc1` [Compound 172, 3-(4-carbamoylphenyl)-N-(4-methanesulfonylphenyl)-N-methylimidazo[1,2-a]pyrazine-6-carboxamide], the EC50 [1, 3] is reported as 1130 nM.

`CN(C(=O)c1cn2c(-c3ccc(C(F)(F)F)cc3)cnc2cn1)c1cccc(F)n1` [Compound 86, N-(6-fluoropyridin-2-yl)-N-methyl-3-[4-(trifluoromethyl)phenyl]imidazo[1,2-a]pyrazine-6-carboxamide] was tested, and the EC50 [1, 3] was 2010 nM.

For `O=C(c1cn2c(-c3ccc(C(F)(F)F)cc3)cnc2cn1)N1CCc2cc(F)ccc21` [Compound 176, 5-fluoro-1-({3-[4-(trifluoromethyl)phenyl]imidazo[1,2-a]pyrazin-6-yl}carbonyl)-2,3-dihydro-1H-indole], the EC50 [1, 3] was > 10000 nM.
